# Assay results from US20120040951A1, “HETEROARYL COMPOUNDS USEFUL AS RAF KINASE INHIBITORS” (priority 2008, published 2012).
# System: phospho-ERK in melanoma derived WM-266-4 cells
# Assay: Mechanistic cellular assay for Raf kinase activity (phospho-ERK, Bio-Plex)
# Type: cell-based
# Conditions: Homo sapiens, treated 1-2 hr at 37° C., serum free medium, read-out: pERK EC50
# Excerpt: (2) Mechanistic Cellular Assay for Raf Kinase Activity
# The following method was utilized for quantifying the amount of phospho-ERK in melanoma derived WM-266-4 cells (one allele each of wild type BRaf and mutant BRaf (V600D) as an indicator of Raf kinase activity in cells treated with various kinase inhibitors.
# (1) Detached adhered WM-266-4 cells from flask using 0.25% Trypsin. Resuspended cells in growth media (90% RPMI 1640, 10% FBS) and determine cell density.
# (2) Seeded cells @ 10,000 cells/well in 96-well (flat bottom) tissue culture plates (36,000 cells/cm^2). Added growth media to a final volume of 200 uL/well and incubated overnight at 37° C.
# (1) Prepared compound dilutions (1000× in DMSO) as follows. Starting with a stock of 5 mM compound in DMSO, diluted serially 3-fold in DMSO for a total of eight concentrations (5 mM, 1.67 mM, 0.556 mM, 0.185 mM, 0.062 mM, 0.021 mM, 0.007 mM, 0.002 mM).
# (2) Prepared compound-containing media by adding 1 mL treatment media (100% RPMI 1640 without FBS) to 1 μL of compound dilution (from step 3).
# (3) Removed plates (from step 2) from incubator. Aspirated media and replace with 150 μL compound-containing media. Incubate for 1-2 hr at 37° C.
# (4) Removed plates (from step 5) from incubator and treated each as follows: aspirated compound-containing media and replaced with 300 μL ice-cold 1×PBS, aspirated PBS and replaced with 45 μL lysis buffer (Biorad Bio-Plex lysis buffer containing 0.4% v/v lysis buff. Factor 1, 0.2% v/v lysis buff. Factor 2, and PMSF to 2 mM final concentration), and then placed plate on ice until all plates were treated.
# (5) After all plates were processed (step 6), placed plates on an orbital shaker and shook at room temperature for at least 15 min.
# (6) Finally, removed plates from shaker, and transfered 40 μL/well of lysate from each to new corresponding 96-well V-bottom plates. At this point, samples may be frozen and stored @−80 C.°.
# (1) Thaw (if necessary) plates (from step 8) and added 40 μL of Phospho-Protein Assay Buffer to each 40 μL lysate for a 1:1 dilution.
# (2) Prepared phospho-ERK1,2 Bioplex beads by diluting 1:50 with Bioplex Wash Buffer (mixing 49 μL Wash Buffer with 1 μL of phospho-ERK1,2 Bioplex beads for each sample to be analyzed). Protected from light by wrapping tube in aluminum foil and kept at room temperature.
# (3) Prepared Filter Plate by adding 100 μL/well Bioplex Wash Buffer and removed by vacuum filtration.
# (4) Add 50 μL of bead solution (from step 10) to each well of a prepared Filter Plate (from step 11) and vacuum filter. Wash/filter 2× with 100 μL/well Wash Buffer.
# (5) Added 50 μL of each lysate to appropriate well of the Filter Plate (from step 12). For this and all subsequent plate incubation steps, placed plate on an inverted plate cover (reduces background), and wrapped in aluminum foil (to protect from light). Shook overnight at room temperature. Included positive (control lysate) and negative (lysis buffer) controls.
# (1) Prepared detection antibody (phospho-ERK1,2 Ab) by diluting 1:25 with Detection Antibody Dilution Buffer Buffer (mixing 24 μL Detection Antibody Dilution Buffer with 1 μL of phospho-ERK1,2 Ab for each sample to be analyzed).
# (2) Removed plate (from step 13) from shaker and vacuum filter. Washed/filter plate 3× with 100 μL/well Wash Buffer. Added 25 μL of diluted antibody to each well. Incubated on shaker at RT for 30-45 min.
# (3) Prepared streptavidin-PE by diluting 1:100 with Wash Buffer (mixing 49.5 μL Wash Buffer with 0.5 μL of 100× streptavidin-PE for each sample to be analyzed). Protected from light.
# (4) Removed plate (from step 15) from shaker and vacuum filter. Washed/filter plate 3× with 100 μL/well Wash Buffer. Add 50 μL of diluted streptavidin-PE solution (from step 16) to each sample well. Incubated on shaker for 10-20 min.
# (5) Removed plate from shaker and vacuum filter. Wash/filter plate 3× with 100 μL/well Bead Resuspension Buffer. After last wash resuspended beads in 125 μL Bead Resuspension Buffer. […]
row,EC50 [nM],Structure (SMILES)
1,100 to 1000,CC(NC(=O)c1cc2c(cn1)ncn2C)c1cnc(Nc2ccc(Cl)cc2)s1 (centres unmarked) [Example 249]
2,100 to 1000,CC(NC(=O)c1cc2c(cn1)ncn2C)c1cnc(Nc2ccc(S(=O)(=O)C(F)(F)F)cc2)s1 (centres unmarked) [Example 250]
3,1000 to 10000,CC(NC(=O)c1cc2c(cn1)ncn2C)c1cnc(Nc2cc(C(F)(F)F)ccn2)s1 (centres unmarked) [Example 251]
4,100 to 1000,CC(NC(=O)c1cc2c(cn1)ncn2C)c1cnc(Nc2cccc(C(C)(C)C#N)c2)s1 (centres unmarked) [Example 252]
5,100 to 1000,CC(NC(=O)c1cc2c(cn1)ncn2C)c1cnc(Nc2cccc(C(F)(F)F)n2)s1 (centres unmarked) [Example 253]
6,1000 to 10000,CC(NC(=O)c1cc2c(cn1)ncn2C)c1cnc(Nc2cc(C(F)(F)F)c(Cl)cn2)cn1 (centres unmarked) [Example 254]
7,100 to 1000,CC(NC(=O)c1cc2c(cn1)ncn2C)c1cnc(Nc2ccc(Cl)cc2)cn1 (centres unmarked) [Example 255]
8,100 to 1000,CC(NC(=O)c1cc2c(cn1)ncn2C)c1cnc(Nc2cnc(C(C)(C)C)nc2)cn1 (centres unmarked) [Example 256]
9,≤ 100,CC(NC(=O)c1cc2c(cn1)ncn2C)c1cnc(Nc2cccc(C(C)(C)C)c2)s1 (centres unmarked) [Example 257]
10,100 to 1000,CC(NC(=O)c1cc2c(cn1)ncn2C)c1cnc(Nc2ccc(Cl)c(C(F)(F)F)c2)s1 (centres unmarked) [Example 258]
11,100 to 1000,Cc1nc(C(F)(F)F)ccc1Nc1ncc(C(C)NC(=O)c2cc3c(cn2)ncn3C)s1 (centres unmarked) [Example 259]
12,1000 to 10000,CC(NC(=O)c1cc2c(cn1)ncn2C)c1cnc(Nc2cc(Cl)ncn2)s1 (centres unmarked) [Example 260]
13,≤ 100,CC(NC(=O)c1cc2c(cn1)ncn2C)c1cnc(Nc2ccc(Cl)c(S(=O)(=O)C(F)(F)F)c2)cn1 (centres unmarked) [Example 269]
14,100 to 1000,CC(NC(=O)c1cc2c(cn1)ncn2C)c1cnc(Nc2ccc(C(C)(C)C(F)(F)F)cc2)s1 (centres unmarked) [Example 272]
15,≤ 100,CC(NC(=O)c1cc2c(cn1)ncn2C)c1cnc(Nc2cc(C(C)(C)C(F)(F)F)ccc2F)s1 (centres unmarked) [Example 274]
16,100 to 1000,CC(NC(=O)c1cc2c(cn1)ncn2C)c1cnc(Nc2ccc(C(F)(F)F)cc2N(C)C)s1 (centres unmarked) [Example 275]
17,100 to 1000,CC(NC(=O)c1cc2c(cn1)ncn2C)c1cnc(Nc2ccc(C3(C)CC3)cc2)s1 (centres unmarked) [Example 277]
18,≤ 100,CC(NC(=O)c1cc2c(cn1)ncn2C)c1cnc(Nc2cccc(C(C)(C)C(F)(F)F)c2)s1 (centres unmarked) [Example 278]
19,1000 to 10000,CC(NC(=O)c1cc2c(cn1)ncn2C)c1cnc(Nc2ccc(C3COC3)cc2)cn1 (centres unmarked) [Example 281]
20,100 to 1000,CCn1cnc2cnc(C(=O)NC(C)c3cnc(Nc4ccc(C(F)(F)F)cn4)cn3)cc21 (centres unmarked) [Example 284]
21,100 to 1000,CCN1CC(n2cnc3cnc(C(=O)NC(C)c4cnc(Nc5cnc(C(C)(C)C)nc5)s4)cc32)C1 (centres unmarked) [Example 288]
22,100 to 1000,CC(NC(=O)c1cc2c(cn1)nc(N)n2C)c1cnc(Nc2ccc(C(F)(F)F)nc2)s1 (centres unmarked) [Example 293]
23,100 to 1000,CCN1CC(n2cnc3cnc(C(=O)NC(C)c4cnc(Nc5ccc(C(F)(F)F)nc5)s4)cc32)C1 (centres unmarked) [Example 294]
24,≤ 100,CC(NC(=O)c1cn2c(Br)cnc2cn1)c1cnc(Nc2ccc(C(F)(F)F)cc2)s1 (centres unmarked) [Example 297]
25,1000 to 10000,CC(NC(=O)c1cn2c(NC(C)(C)CC(C)(C)C)cnc2cn1)c1ncc(Nc2ccc(C(F)(F)F)cc2)s1 (centres unmarked) [Example 301]
26,100 to 1000,CC(NC(=O)c1cn2c(N)cnc2cn1)c1ncc(Nc2ccc(C(F)(F)F)cc2)s1 (centres unmarked) [Example 302]

row,EC50 [nM],Structure (SMILES)
1,100 to 1000,CCNc1cnc2cnc(C(=O)NC(C)c3ncc(Nc4ccc(C(F)(F)F)cc4)s3)cn12 (centres unmarked) [Example 303]
2,100 to 1000,CCN(CC)c1cnc2cnc(C(=O)NC(C)c3ncc(Nc4ccc(C(F)(F)F)cc4)s3)cn12 (centres unmarked) [Example 304]
3,100 to 1000,Cc1nc2cnc(C(=O)NC(C)c3ncc(Nc4ccc(C(F)(F)F)cc4)s3)cn2c1N (centres unmarked) [Example 305]
4,1000 to 10000,CCc1nc2cnc(C(=O)NC(C)c3ncc(Nc4ccc(C(F)(F)F)cc4)s3)cn2c1NC(C)(C)CC(C)(C)C (centres unmarked) [Example 306]
5,1000 to 10000,CCc1nc2cnc(C(=O)NC(C)c3ncc(Nc4ccc(C(F)(F)F)cc4)s3)cn2c1N (centres unmarked) [Example 307]
6,1000 to 10000,Cc1nc2cnc(C(=O)NC(C)c3ncc(Nc4ccc(C(F)(F)F)cc4)s3)cn2c1Cl (centres unmarked) [Example 308]
7,≤ 100,C[C@@H](NC(=O)c1cnc2cnccn12)c1ncc(C(=O)Nc2cc(C(F)(F)F)c(Cl)cn2)s1 [Example 312]
8,1000 to 10000,CC(NC(=O)c1cnc2n1CCN(C(=O)OC(C)(C)C)C2)c1cnc(Nc2ccc(C(F)(F)F)cc2)s1 (centres unmarked) [Example 313]
9,100 to 1000,CC(NC(=O)c1cnc2n1CCNC2)c1cnc(Nc2ccc(C(F)(F)F)cc2)s1 (centres unmarked) [Example 314]
10,100 to 1000,C[C@@H](NC(=O)c1cnc2n1CCNC2)c1ncc(C(=O)Nc2cc(C(F)(F)F)c(Cl)cn2)s1 [Example 315]
11,100 to 1000,CC(NC(=O)c1cnn2cc(Br)ccc12)c1ncc(C(=O)Nc2cc(C(F)(F)F)c(Cl)cn2)s1 (centres unmarked) [Example 319]
12,≤ 100,CC(NC(=O)c1cnn2cc(-c3ccncc3)ccc12)c1ncc(C(=O)Nc2cc(C(F)(F)F)c(Cl)cn2)s1 (centres unmarked) [Example 321]
13,100 to 1000,CC(NC(=O)c1cnn2cc(-c3ccc(F)nc3)ccc12)c1ncc(C(=O)Nc2cc(C(F)(F)F)c(Cl)cn2)s1 (centres unmarked) [Example 322]
14,≤ 100,CC(NC(=O)c1cnn2cc(-c3ccc(N4CCOCC4)nc3)ccc12)c1ncc(C(=O)Nc2cc(C(F)(F)F)c(Cl)cn2)s1 (centres unmarked) [Example 323]
15,100 to 1000,CC(NC(=O)c1cnn2cc(-c3cccnc3F)ccc12)c1nc(C(=O)Nc2cc(C(F)(F)F)c(Cl)cn2)cs1 (centres unmarked) [Example 324]
16,100 to 1000,CC(NC(=O)c1cnn2cc(-c3cc(F)nc(F)c3)ccc12)c1nc(C(=O)Nc2cc(C(F)(F)F)c(Cl)cn2)cs1 (centres unmarked) [Example 325]
17,100 to 1000,CC(NC(=O)c1cnn2cc(-c3ccnc(F)c3)ccc12)c1nc(C(=O)Nc2cc(C(F)(F)F)c(Cl)cn2)cs1 (centres unmarked) [Example 326]
18,≤ 100,CC(NC(=O)c1cnn2cc(-c3cnc(N)nc3)ccc12)c1ncc(C(=O)Nc2cc(C(F)(F)F)c(Cl)cn2)s1 (centres unmarked) [Example 327]
19,≤ 100,CC(NC(=O)c1cnn2cc(-c3cncnc3)ccc12)c1ncc(C(=O)Nc2cc(C(F)(F)F)c(Cl)cn2)s1 (centres unmarked) [Example 328]
20,≤ 100,CC(NC(=O)c1cnn2cc(-c3cncc(F)c3)ccc12)c1ncc(C(=O)Nc2cc(C(F)(F)F)c(Cl)cn2)s1 (centres unmarked) [Example 329]
21,100 to 1000,COc1cc(-c2ccc3c(C(=O)NC(C)c4ncc(C(=O)Nc5cc(C(F)(F)F)c(Cl)cn5)s4)cnn3c2)ccn1 (centres unmarked) [Example 330]
22,≤ 100,C[C@@H](NC(=O)c1cnc2n1CCCC2)c1ncc(C(=O)Nc2cc(C(F)(F)F)c(Cl)cn2)s1 [Example 335]
23,≤ 100,C[C@@H](NC(=O)c1cnc2n1CCC2)c1ncc(C(=O)Nc2cc(C(F)(F)F)c(Cl)cn2)s1 [Example 336]
24,100 to 1000,COc1cn2ncnc(C(=O)NC(C)c3cnc(Nc4ccc(C(F)(F)F)cc4)s3)c2c1C (centres unmarked) [Example 337]
25,≤ 100,CCS(=O)(=O)N1CC(n2cnc3cnc(C(=O)N[C@H](C)c4cnc(Nc5ccc(C(F)(F)F)cc5)cn4)cc32)C1 [Example 342]
26,≤ 100,CC(C)S(=O)(=O)N1CC(n2cnc3cnc(C(=O)N[C@H](C)c4cnc(Nc5ccc(C(F)(F)F)cc5)cn4)cc32)C1 [Example 343]

row,Structure (SMILES),EC50 [nM]
1,CC(NC(=O)c1cc2c(cn1)ncn2C)c1cnc(Nc2cccc(C3(C)CC3)c2)s1 (centres unmarked) [Example 271],100 to 1000
